The results in this text go back to PubChem BioAssay (NCI).

Test systems include UACC-62 melanoma; NCI-H460 lung; IGROV1 ovarian; CCRF-CEM leukemia; HCT-116 colon; MCF7 breast; SW-620 colon; HOP-92 NSCLC; MDA-MB-231 breast; HS 578T breast.
Holding throughout (test): NCI tumour cell line growth inhibition, 48 h

The structures appear in SMILES notation.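 In this assay, cells in 96-well plates receive the compound at five concentrations for 48 hours. Endpoints are linearly interpolated between the surrounding concentrations. TGI: concentration producing complete growth inhibition.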

As to `CC1[C@@]2(O[C@@H]3C=C4C5CCC6Cc7nc8c(nc7C[C@@]6(C)C5C[C@H](O)[C@@]4(C)[C@]13O)CC1CCc3c(cc4c5c3C(O)C[C@H]5[C@@H](C)C3(O4)OC(C)(C)CC3O)[C@]1(C)C8)O[C@@](C)(CO)C[C@@H]2O` (stereo partly drawn), the TGI was 0.748 µM in the experiment on UACC-62 melanoma; over 3.72 µM in the experiment with NCI-H460 lung; over 3.72 µM in the experiment with IGROV1 ovarian; over 3.72 µM in the experiment on CCRF-CEM leukemia; over 3.72 µM with HCT-116 colon; over 3.72 µM with MCF7 breast. For the same compound, in the experiment with SW-620 colon, the TGI was 1.1 µM.
On to `CN(C)CCNC(=O)c1cccc2c1C(=O)c1ccccc1C2=O`, for which the TGI with UACC-62 melanoma was 47.9 µM; in the experiment with NCI-H460 lung, 85.8 µM; with IGROV1 ovarian, over 76.5 µM; with CCRF-CEM leukemia, 98.9 µM; in the experiment on HOP-92 NSCLC, over 73.7 µM; with HCT-116 colon it was 66.5 µM. In addition, the TGI with MCF7 breast is over 79 µM; in the experiment on SW-620 colon, over 91.3 µM.
With `CC(C#N)(NO)C(C)(C#N)NO` (stereo not drawn), the TGI with UACC-62 melanoma, in the experiment with MDA-MB-231 breast, in the experiment with NCI-H460 lung, with HS 578T breast, in the experiment on IGROV1 ovarian and in the experiment with CCRF-CEM leukemia was over 100 µM each time. The TGI in the experiment with HCT-116 colon, in the experiment on MCF7 breast and with SW-620 colon was over 100 µM each time.
With `Cc1[nH]c(=O)nc(N/N=C/c2c3ccccc3c(Cl)c3ccccc23)c1C(=O)Nc1ccc(Cl)cc1`, the TGI in the experiment with UACC-62 melanoma was over 100 µM; with MDA-MB-231 breast, over 100 µM; in the experiment with NCI-H460 lung, over 100 µM; in the experiment with IGROV1 ovarian, over 100 µM; in the experiment with CCRF-CEM leukemia, 89.3 µM; in the experiment with HCT-116 colon, over 100 µM. Further, the TGI in the experiment with MCF7 breast and with SW-620 colon was over 100 µM in each case.
In the case of `CN(C)N1C(=O)C(=O)N(c2cccc3ccccc23)C1=O`, the TGI in the experiment on UACC-62 melanoma, in the experiment on MDA-MB-231 breast, in the experiment on NCI-H460 lung, with HS 578T breast, in the experiment on IGROV1 ovarian and in the experiment with CCRF-CEM leukemia was over 10 µM each time. Also, the TGI in the experiment with HCT-116 colon, with MCF7 breast and with SW-620 colon was over 10 µM in each case.
Take `CCOP(=O)(OCC)C(c1ccc(F)cc1)N(C(=O)NC(F)(F)F)c1ccc(F)cc1` (stereo not drawn): the TGI in the experiment on MDA-MB-231 breast, with NCI-H460 lung, in the experiment on HS 578T breast, in the experiment with IGROV1 ovarian, in the experiment on CCRF-CEM leukemia and in the experiment on HCT-116 colon was over 100 µM in each case. For the same compound, the TGI in the experiment with MCF7 breast and with SW-620 colon was over 100 µM in each case.
With `COC(=O)[C@@]12CSC[C@]1(C(=O)OC)N[C@@H](c1ccccc1O)C2`, the TGI in the experiment on UACC-62 melanoma, in the experiment with NCI-H460 lung, in the experiment with HS 578T breast, with IGROV1 ovarian, in the experiment on CCRF-CEM leukemia and in the experiment with HOP-92 NSCLC was over 100 µM throughout. In addition, the TGI with HCT-116 colon, in the experiment on MCF7 breast and in the experiment on SW-620 colon was over 100 µM each time.
Regarding `O=c1cc(NNc2ccccc2)[nH]c(=O)[nH]1`, the TGI with UACC-62 melanoma was 28.5 µM; in the experiment on MDA-MB-231 breast, 29.3 µM; with NCI-H460 lung, 98.9 µM; with HS 578T breast, over 100 µM; in the experiment with IGROV1 ovarian it was over 100 µM; in the experiment with CCRF-CEM leukemia, over 100 µM. The TGI in the experiment with HCT-116 colon stood at 32.6 µM; in the experiment on MCF7 breast, 26.3 µM.
For `COC(=O)c1ccc(OCCn2nnc(C(=O)NN)c2C(=O)NN)cc1`, the TGI in the experiment on MDA-MB-231 breast, with NCI-H460 lung, with CCRF-CEM leukemia, in the experiment with HOP-92 NSCLC, in the experiment with HCT-116 colon and in the experiment on MCF7 breast was over 100 µM each time.
Consider `Nc1cc(OCC2CCCCC2)nc(N)n1`, for which the TGI with UACC-62 melanoma, with MDA-MB-231 breast, in the experiment on NCI-H460 lung, in the experiment on HS 578T breast, in the experiment with IGROV1 ovarian and with CCRF-CEM leukemia was over 100 µM throughout. In addition, the TGI in the experiment with HOP-92 NSCLC, with HCT-116 colon and in the experiment with SW-620 colon was over 100 µM throughout.
As to `Cc1cccc2c(=O)c3cccc([C@H](C)C(=O)O)c3oc12`, the TGI in the experiment on UACC-62 melanoma, with MDA-MB-231 breast, with NCI-H460 lung, with HS 578T breast, with IGROV1 ovarian and with CCRF-CEM leukemia was over 100 µM in each case. Besides, the TGI in the experiment with HOP-92 NSCLC, in the experiment on HCT-116 colon and in the experiment on SW-620 colon was over 100 µM in each case.
Regarding `Nc1cc(CO)cc(Nc2c3ccccc3nc3ccccc23)c1`, the TGI is 34.5 µM in the experiment on UACC-62 melanoma; 24.8 µM in the experiment with MDA-MB-231 breast; over 100 µM in the experiment with NCI-H460 lung; 67.8 µM with HS 578T breast; 31.3 µM in the experiment on IGROV1 ovarian; over 100 µM in the experiment on CCRF-CEM leukemia. Moreover, the TGI in the experiment on HCT-116 colon is 28.5 µM; in the experiment on MCF7 breast it was 29.5 µM; in the experiment with SW-620 colon, 26 µM.
`CC1=NNC(=O)C1C1(C(=O)O)CC(c2c[nH]c3ccccc23)=NC(=S)N1` (stereo not drawn): the TGI in the experiment with UACC-62 melanoma is over 100 µM; in the experiment on MDA-MB-231 breast, 81.7 µM; in the experiment on NCI-H460 lung it was 50.1 µM; with HS 578T breast, 47.7 µM; with IGROV1 ovarian, over 100 µM; with CCRF-CEM leukemia, 64.1 µM. Further, the TGI in the experiment on HOP-92 NSCLC, in the experiment with HCT-116 colon and in the experiment with SW-620 colon was over 100 µM each time.
Take `O=C(Cn1c2ccc(Br)cc2c2nc3ccccc3nc21)NCc1ccccc1`: the TGI in the experiment with UACC-62 melanoma is 93.4 µM; in the experiment on MDA-MB-231 breast it was over 100 µM; in the experiment on NCI-H460 lung, over 100 µM; with HS 578T breast, 92.4 µM; in the experiment with IGROV1 ovarian it was over 100 µM; in the experiment with CCRF-CEM leukemia, over 100 µM. For the same compound, the TGI is 13.1 µM with HOP-92 NSCLC, over 100 µM with HCT-116 colon and over 100 µM with SW-620 colon.
As for `O=C1C=C(NCCc2ccc(O)c([N+](=O)[O-])c2)C(=O)c2[nH]cnc21`, the TGI in the experiment with UACC-62 melanoma is 40.7 µM; in the experiment on MDA-MB-231 breast, over 100 µM; in the experiment with NCI-H460 lung it was 69.6 µM; with HS 578T breast, over 100 µM; in the experiment with IGROV1 ovarian, 54.8 µM; in the experiment on HCT-116 colon, over 100 µM. Further, the TGI in the experiment with MCF7 breast was 78.1 µM; in the experiment on SW-620 colon it was over 100 µM.
Regarding `Nc1nnc(N)n1N`, the TGI in the experiment with UACC-62 melanoma, in the experiment with NCI-H460 lung, with IGROV1 ovarian, in the experiment on CCRF-CEM leukemia, in the experiment with HOP-92 NSCLC and in the experiment with HCT-116 colon was over 100 µM in each case. Further, the TGI in the experiment with SW-620 colon was over 100 µM.
`CCC1(O)C(=O)OCc2c1cc1n(c2=O)Cc2cc3cc4c(cc3nc2-1)OCO4` (stereo not drawn): the TGI with UACC-62 melanoma is 0.0509 µM; in the experiment with NCI-H460 lung, 0.0156 µM; in the experiment with HS 578T breast, over 100 µM; with IGROV1 ovarian it was 1.54 µM; with HOP-92 NSCLC, 0.6 µM; in the experiment with HCT-116 colon, 0.108 µM. Moreover, the TGI was over 12.8 µM with MCF7 breast and 18.7 µM in the experiment on SW-620 colon.
As to `COc1cc(/C=C/c2ccc(OC)c(OC)c2)oc(=O)c1`, the TGI in the experiment with UACC-62 melanoma, with NCI-H460 lung, in the experiment on IGROV1 ovarian, in the experiment with CCRF-CEM leukemia, with HOP-92 NSCLC and with HCT-116 colon was over 250 µM each time. Further, the TGI in the experiment on MCF7 breast and with SW-620 colon was over 250 µM each time.
Consider `NCCCn1c(Cl)nc2ccccc21`, for which the TGI in the experiment with UACC-62 melanoma, with MDA-MB-231 breast, in the experiment with NCI-H460 lung, in the experiment on HS 578T breast, with IGROV1 ovarian and in the experiment on CCRF-CEM leukemia was over 100 µM throughout. In addition, the TGI in the experiment on HCT-116 colon, in the experiment with MCF7 breast and in the experiment with SW-620 colon was over 100 µM throughout.
With `COc1ccc(C2CC(c3sc(Nc4ccc(C)cc4)nc3C)=NN2)cc1` (stereo not drawn), the TGI is over 55.3 µM in the experiment on UACC-62 melanoma; 30.3 µM in the experiment with NCI-H460 lung; over 56.9 µM with IGROV1 ovarian; 54.7 µM with CCRF-CEM leukemia; 30.3 µM in the experiment on HOP-92 NSCLC; 15.1 µM in the experiment on HCT-116 colon. Besides, the TGI with MCF7 breast worked out at 31.7 µM; in the experiment with SW-620 colon it was 38.2 µM.
Turning to `CN1C/C(=C\c2cccs2)C2=NN(c3ccccc3)C(c3cccs3)C2C1` (stereo not drawn), the TGI was over 100 µM in the experiment on UACC-62 melanoma; 98.7 µM in the experiment on MDA-MB-231 breast; over 100 µM in the experiment on NCI-H460 lung; over 100 µM in the experiment on HS 578T breast; over 25.5 µM in the experiment on IGROV1 ovarian; 5.95 µM with CCRF-CEM leukemia. Also, the TGI in the experiment with HCT-116 colon was over 35.7 µM; in the experiment with MCF7 breast, over 100 µM; in the experiment with SW-620 colon, over 100 µM.
Consider `O=[N+]([O-])c1ccc(C[P+]2(c3ccccc3)CCCCC2)cc1` (tested in a mixture with another compound), for which the TGI with UACC-62 melanoma, with NCI-H460 lung, in the experiment on IGROV1 ovarian, in the experiment on CCRF-CEM leukemia and in the experiment with SW-620 colon was over 100 µM throughout.
On to `CC(O)C(CO)NC(=O)C1CSSCC(NC(=O)C(N)Cc2ccccc2)C(=O)NC(Cc2ccccc2)C(=O)NC(Cc2c[nH]c3ccccc23)C(=O)NC(CCCCN)C(=O)NC(C(C)O)C(=O)N1` (stereo not drawn), for which the TGI with UACC-62 melanoma, in the experiment on MDA-MB-231 breast, with NCI-H460 lung, in the experiment on IGROV1 ovarian, with CCRF-CEM leukemia and with HOP-92 NSCLC was over 100 µM in each case. Moreover, the TGI in the experiment on HCT-116 colon, with MCF7 breast and in the experiment with SW-620 colon was over 100 µM throughout.
